Structures are written as SMILES.

These results are taken from US20240307335A1, “IRG Blockade to Armor CAR T Cells Against Myeloid Dysfunction” (ROSWELL PARK CANCER INSTITUTE CORPORATION, priority 2023, published 2024).

In one test the test system is Eμ-myc cells. The experiment in a line: Luciferase-based killing assay with CAR T cells isolated from initial coculture. It counts as cell-based, mouse. Conditions: CAR T cells isolated after 48 h initial coculture with Eμ-myc cells and imMac with agent (L-NIL 50 μM; anti-IFN-γ 10 μg/mL); lysis at 24 h. Here is the method: (§1) CAR T cell isolation from initial coculture for subsequent downstream assays: 1×10^6 CAR T cells and 1×10^6 Eμ-myc-GFP-FFL cells were cocultured in the absence or presence of 0.25×10^6 macrophages in a 6-well plate in 6 ml of media for 48 h. After initial coculture, cells were harvested, and T cells were isolated using Mouse T Cell Isolation Kit ([…] Technologies). […] Percentage of CAR-expressing T cells was determined with flow cytometry and were subsequently used for downstream assays.
Luciferase-based killing assay: 2×10^4 Eμ-ALL-GFP-FFL cells were cocultured with CAR T cells at different effector-to-target ratios in a 96-well white-walled plate in 100 μl of media. Following incubation, 100 μl luciferase substrate reagent (ONE-Glo Luciferase assay system, Promega) was added to each well. Target cells alone were plated at the same cell density to determine maximum luciferase signals. Emitted luminescence was detected in the microplate reader (GloMax, Promega). Percent lysis was determined as (1−sample signal/maximum signal)×100.

Test [1] concerns CAR T cells cocultured with fresh Eμ-myc cells. The experiment in a line: Cytokine secretion assay (Ella automated ELISA) with CAR T cells isolated from initial coculture. It counts as cell-based, mouse. Conditions: CAR T cells isolated after 48 h coculture with imMac with agent (L-NIL 50 μM, supernatants at 36 h; anti-IFN-γ 10 μg/mL, at 24 h). The procedure: as §1
Cytokine secretion assay: 2×10^4 Eμ-myc cells were cocultured with 2×10^4 CAR T cells in a 96-well plate in a total volume of 100 μl of media. Supernatants were collected and analyzed for IFN-γ and TNF-α secretion using Ella automated immunoassay system (Proteinsimple Bio-techne) according to manufacturer's instructions.
Background: An ELISA detects its analyte on a solid surface through an enzyme-linked reagent.

A further test deals with iNOS. The experiment in a line: Griess assay of NO levels in coculture supernatants. It counts as cell-based, mouse. Conditions: L-NIL 50 μM at 48 h, anti-IFN-γ 10 μg/mL at 44 h. The procedure:
Griess assay: 2×10^4 Eμ-myc cells and 2×10^4 CAR T cells were cocultured in the presence or absence of 0.5×10^4 macrophages in a 96-well plate in 120 μl of media. Coculture supernatants were harvested, and nitric oxide levels were measured using Griess reagent system (Promega) according to manufacturer's instructions. Absorbance was read at 560 nm using microplate reader (GloMax, Promega), and NO2 concentrations were determined by standard curve. Standard curve was prepared with diluting 0.1M sodium nitrite standard (provided in the kit) with the culture media used for experiments.
(In general: Nitrite, measured by Griess reagent, commonly stands in for NO production.)

The test system of test [2] is arginine metabolism by imMac. The experiment in a line: Global metabolomics (LC-MS) of coculture supernatants. It counts as cell-based, mouse. The note with it: L-NIL (50 PM). Here is the method: Metabolomics and ^13C6-labeled glucose tracing analyses: For global metabolomics analysis of cell-cultured medium, the cell-free medium was obtained by performing rapid centrifugation (17,000×g, 10 sec, room temperature) to collect the supernatant. The metabolites present in 20 μl of the cell-cultured medium were then extracted using 80 μl of ice-cold MeOH. Following a 30 min incubation on ice and subsequent centrifugation (17,000×g, 20 min, 4° C.), the supernatant was subjected to LC-HRMS analysis.
LC-HRMS analysis was performed on a Vanquish UPLC coupled with a Q-Exactive HF mass spectrometer, employing the same conditions as the previously established methods 76. A ZIC-pHILIC LC column (4.6 mm inner diameter×150 mm length, […], MilliporeSigma, Burlington, MA) with a ZIC-pHILIC guard column (4.6 mm inner diameter×20 mm length, MilliporeSigma, Burlington, MA) was used for chromatographic separation at a column temperature of 30° C. The mobile phases included 10 mM (NH4)2CO3 and 0.05% NH40H in H2O for mobile phase A, and […]. The LC gradient conditions were as follows: 0 to 13 min: a decreasing of 80% to 20% of mobile phase B, 13 to 15 min: 20% of mobile phase B. The ionization was set to negative mode, with the MS scan range set to 60 to 1000 m/z. The mass resolution was 70,000, and the AGC target was 1×106. The sample loading volume was 5 μl. The unlabeled or ^13C-labeled metabolite peaks were extracted using EL-Maven with a metabolite standard-based in-house library. For global metabolomic profiling, peak areas of metabolites were normalized by the median value of the total for identified metabolite peak areas in each sample. For the ^13C-labeled metabolite peaks, the natural isotope peak area was corrected using IsoCor (Version 2.2).

In another test the test system is Eμ-myc B cell tumors. The experiment in a line: Survival of Eμ-myc tumor-bearing mice treated with CAR T cells and L-NIL. It counts as in vivo, mouse. The note with it: combination of 1928z CAR T cells and L-NIL (i.p. once per day, 20 mg/kg) compared to 1928z CAR T cells alone; Eμ-myc tumors in peritoneal cavity. The procedure:
Animal experiment: Six- to 10-week-old Rag1^+/+ mice of both sexes were intraperitoneally (i.p.) injected with 3×10^6 Eμ-myc-GFP-FFL cells to generate tumors localized in peritoneal cavity. Tumor engraftment was verified by bioluminescence imaging one day before CAR T cell transfer. Mice were randomized to different treatment groups without differences in pre-treatment tumor load. Seven days after tumor cell inoculation, mice were injected i.p. with 5×10^6 CAR T cells in 300 μl PBS. For survival experiments, L-NIL or PBS was administered i.p. once per day at 20 mg/kg body weight starting on the same day of tumor cell injection. […] Bioluminescence imaging was performed by IVIS Lumina III In Vivo Imaging System (PerkinElmer) with Living Image software (PerkinElmer).

As to `CC(=N)NCCCC[C@H](N)C(=O)O.Cl` [L-NIL, N^6-(1-Iminoethyl)-lysine, hydrochloride], the “lysis of Eμ-myc cells by CAR T cells (capacity to kill tumor cells)” value in the test on Eμ-myc cells is recorded as “preserved the capacity of CAR T cells to kill tumor cells”. In test [1], the “production of effector cytokine IFN-γ by CAR T cells” value was “preserved” and the “production of effector cytokine TNF-α by CAR T cells” value is “preserved”. The “production of NO in cocultures with imMac” value in the test with iNOS is reported as “attenuated”. Moreover, the “production of citrulline in cocultures with imMac” value in test [2] (coculture supernatants) is “attenuated”. Besides, in test [2] (cocultures with imMac), the “levels of arginine in coculture supernatants” value is “remained comparable” and the “levels of ornithine in coculture supernatants” value is on record as “remained comparable”. Also, in the test on Eμ-myc B cell tumors, the “survival of tumor-bearing mice” value is recorded as “significantly improved survival”.
